≈ marks a conversion by molar mass, not a printed value. Read-outs that look alike come from different tables or passages of the source.
What was measured:
MIP = experiment: Inhibition of cancer cell growth as measured by cell number, MIP; type: cell-based; settings: Homo sapiens, read-out: IC50 MIP
HL60 = experiment: Inhibition of cancer cell growth as measured by cell number, HL60; type: cell-based; settings: Homo sapiens, HL-60, 48 h, read-out: IC50 HL60
A2780DDP = experiment: Inhibition of cancer cell growth as measured by cell number, A2780DDP; type: cell-based; settings: Homo sapiens, 48 h, read-out: IC50 A2780DDP
A431 [1] = experiment: Inhibition of cancer cell growth as measured by cell number, A431; type: cell-based, human; settings: Homo sapiens, A-431, 48 h, read-out: IC50 A431, cell number, Sulforhodamine B, 48 hours exposure;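 note: human A431 line, picked because it overexpresses epidermal growth factor receptor (EGFR)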
Source text: (§1) The cell lines were chosen since they overexpressed epidermal growth factor receptor (EGFR) (i.e. A431) or HER2/neu (SKBR3), or had little to no expression of the these receptors (SW620, LOX, MCF7).

HCT15 = experiment: Inhibition of cancer cell growth as measured by cell number, HCT15; type: cell-based; settings: Homo sapiens, HCT-15, 48 h, read-out: IC50 HCT15
[2] = target: epidermal growth factor receptor kinase (Homo sapiens, UniProt P00533); experiment: biochemical
Chain of epidermal growth factor receptor kinase (P00533 25-1210): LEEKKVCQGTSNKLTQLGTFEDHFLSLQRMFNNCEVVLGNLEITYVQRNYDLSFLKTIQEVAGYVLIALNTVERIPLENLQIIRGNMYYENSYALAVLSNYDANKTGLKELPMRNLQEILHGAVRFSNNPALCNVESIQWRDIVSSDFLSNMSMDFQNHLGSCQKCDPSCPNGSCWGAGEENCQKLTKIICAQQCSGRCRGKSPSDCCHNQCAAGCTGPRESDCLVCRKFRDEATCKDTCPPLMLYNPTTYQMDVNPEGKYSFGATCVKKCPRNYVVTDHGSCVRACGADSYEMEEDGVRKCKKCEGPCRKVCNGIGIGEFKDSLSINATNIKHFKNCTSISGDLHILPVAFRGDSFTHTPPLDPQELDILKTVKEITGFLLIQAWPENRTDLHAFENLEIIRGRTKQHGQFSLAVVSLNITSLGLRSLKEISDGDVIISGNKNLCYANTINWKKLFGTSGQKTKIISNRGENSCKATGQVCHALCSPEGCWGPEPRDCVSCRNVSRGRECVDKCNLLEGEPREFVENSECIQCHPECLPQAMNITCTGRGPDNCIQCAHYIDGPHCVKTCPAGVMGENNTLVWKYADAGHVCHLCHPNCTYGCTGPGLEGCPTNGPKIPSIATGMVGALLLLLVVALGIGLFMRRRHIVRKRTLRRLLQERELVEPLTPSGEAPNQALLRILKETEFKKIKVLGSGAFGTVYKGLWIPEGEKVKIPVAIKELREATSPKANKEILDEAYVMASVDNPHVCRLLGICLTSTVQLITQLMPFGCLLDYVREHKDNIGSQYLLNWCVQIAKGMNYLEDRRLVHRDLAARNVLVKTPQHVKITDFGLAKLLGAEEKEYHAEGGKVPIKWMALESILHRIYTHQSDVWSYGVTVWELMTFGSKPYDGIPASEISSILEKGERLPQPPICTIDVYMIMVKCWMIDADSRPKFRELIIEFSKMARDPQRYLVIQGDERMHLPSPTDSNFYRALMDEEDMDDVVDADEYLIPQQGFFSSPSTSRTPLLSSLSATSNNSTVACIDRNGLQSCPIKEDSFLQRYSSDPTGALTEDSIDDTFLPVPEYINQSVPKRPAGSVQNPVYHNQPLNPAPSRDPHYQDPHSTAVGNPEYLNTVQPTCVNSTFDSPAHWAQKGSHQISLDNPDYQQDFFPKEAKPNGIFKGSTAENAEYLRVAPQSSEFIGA
Procedure: The enzyme was obtained as a membrane extract of A431 cells (American Type Culture Collection, Rockville, MD). A431 cells were grown in T175 flasks to 80% confluency. The cells were washed twice with phosphate buffered saline (PBS) without Ca^2+. Flasks were rotated for 1.5 hours in 20 ml PBS with 1.0 mM ethylenediaminetetraacetic acid (EDTA) at room temperature and centrifuged at 600g for 10 minutes. The cells were solubilized in 1 ml per 5 x 10^6 cells of cold lysis buffer {10mM 4-(2-hydroxyethyl)-1-piperazineethane-sulfonic acid (HEPES), pH 7.6, 10 mM NaCl, 2mM EDTA, 1mM phenylmethyl-sulfonyl-fluoride (PMSF), 10 mg/ml aprotinin, 10 mg/ml leupeptin, 0.1 mM sodium orthovanadate} in a Dounce homogenizer with 10 strokes on ice. The lysate was centrifuged at 600g for 10 minutes first to clear cell debris and the supernatant further centrifuged at 100,000 g for 30 min at 4°C. The membrane pellet was suspended in 1.5 ml HNG buffer (50 mM HEPES, pH 7.6, 125 mM NaCl, 10% glycerol). The membrane extract was divided into aliquots, immediately frozen in liquid nitrogen and stored at -70°C.
Compounds to be evaluated were made into 10 mg/ml stock solutions in 100% dimethylsulfoxide (DMSO). Prior to experiment, stock solutions were diluted to 500 mM with buffer (30 mM Hepes pH 7.4) and then serially diluted to the desired concentration.
An aliquot of the A431 membrane extract (10 mg/ml) was diluted in 30 mM HEPES (pH 7.4) to give a protein concentration of 50 ug/ml. […] To this was added the ^33p-ATP (10 mCi/ml) diluted 1:10 in assay buffer along with the substrate peptide at a concentration of 0.5 mM (control reactions get no test compound) and the reaction was allowed to proceed for 30 min at 30°C. The reaction was stopped with 10% TCA and left on ice for at least 10 min after which tubes were microcentrifuged at full speed for 15 min. The a portion of the supernatants were spotted on P81 phosphocellulose discs and washed twice in 1% acetic acid then water for 5 min each followed by scintillation counting. […] The % inhibition of the test compound was determined for at least three different concentrations and the IC50 value was evaluated from the dose response curve. […] CPM(control) is in units of counts per minute and was a number expressing the amount of radiolabeled ATP (g-^33P) incorporated into the RR-SRC peptide substrate by the enzyme after 30 minutes at 30°C in the absence of test compound as measured by liquid scintillation counting. The CPM values were corrected for the background counts produced by ATP in the absence of the enzymatic reaction. The IC50 values reported in TABLE 1 are averages of the number of tests conducted.

A431 [3] = experiment: Inhibition of cell growth by incorporation of [3H]-thymidine, A431; type: cell-based, human; settings: Homo sapiens, A-431, read-out: IC50 A431
PC3 = experiment: Inhibition of cancer cell growth as measured by cell number, PC3; type: cell-based; settings: Homo sapiens, PC-3, 48 h, read-out: IC50 PC3
T47D = experiment: Inhibition of cancer cell growth as measured by cell number, T47D; type: cell-based; settings: Homo sapiens, 48 h, read-out: IC50 T47D
LOX = experiment: Inhibition of cancer cell growth as measured by cell number, LOX; type: cell-based, human; settings: Homo sapiens, LOX, 48 h, read-out: IC50 LOX, cell number, Sulforhodamine B, 48 hours exposure;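 note: LOX cells served as a line with low or absent EGFR and HER2/neu expression, in contrast to receptor-overexpressing lines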
Source text: as §1

SW620 = experiment: Inhibition of cancer cell growth as measured by cell number, SW620; type: cell-based, human; settings: Homo sapiens, SW-620, 48 h, read-out: IC50 SW620, cell number, Sulforhodamine B, 48 hours exposure;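 note: SW620 was included as a cell line with little or no EGFR or HER2/neu expression, in contrast to receptor-overexpressing lines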
Source text: as §1

NEC = experiment: Inhibition of cancer cell growth as measured by cell number, NEC; type: cell-based; settings: Homo sapiens, 48 h, read-out: IC50 NEC
LX1 = experiment: Inhibition of cancer cell growth as measured by cell number, LX1; type: cell-based; settings: Homo sapiens, LX-1, 48 h, read-out: IC50 LX1
SW948 = experiment: Inhibition of cancer cell growth as measured by cell number, SW948; type: cell-based; settings: Homo sapiens, SW948, 48 h, read-out: IC50 SW948
[4] = target: recombinant human MEK 1 (MAPKK) and recombinant human ERK2 (MAPK); experiment: Mitogen Activated Protein Kinase (MAPK) assay, two component coupled MEK 1 / ERK2; type: biochemical; settings: separate entries for the same compound = evaluated more than one time;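 note: MEK 1-activated ERK2 phosphorylates MBP or Myc peptide with 33P-ATP, filter capture and scintillation counting, inhibitor preincubated with ERK2 30 min at 0 °C, inhibition relative to uninhibited control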
DU145 = experiment: Inhibition of cancer cell growth as measured by cell number, DU145; type: cell-based; settings: Homo sapiens, DU-145, 48 h, read-out: IC50 DU145
SKBR3 = experiment: Inhibition of cancer cell growth as measured by cell number, SKBR3; type: cell-based, human; settings: Homo sapiens, SK-BR-3, 48 h, read-out: IC50 SKBR3, cell number, Sulforhodamine B, 48 hours exposure;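 note: SK-BR-3 cells were selected as a line overexpressing HER2/neu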
Source text: as §1

CCL228 = experiment: Inhibition of cancer cell growth as measured by cell number, CCL228; type: cell-based; settings: Homo sapiens, 48 h, read-out: IC50 CCL228
MCF7 = experiment: Inhibition of cancer cell growth as measured by cell number, MCF7; type: cell-based, human; settings: Homo sapiens, MCF7, 48 h, read-out: IC50 MCF7, cell number, Sulforhodamine B, 48 hours exposure;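 note: MCF7 was included as a line with little or no EGFR or HER2/neu expression, in contrast to the receptor-overexpressing lines of the panel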
Source text: as §1

CACO2 = experiment: Inhibition of cancer cell growth as measured by cell number, CACO2; type: cell-based; settings: Homo sapiens, Caco-2, 48 h, read-out: IC50 CACO2
A549 = experiment: Inhibition of cancer cell growth as measured by cell number, A549; type: cell-based; settings: Homo sapiens, A549, 48 h, read-out: IC50 A549
COLO205 = experiment: Inhibition of cancer cell growth as measured by cell number, COLO205; type: cell-based; settings: Homo sapiens, COLO 205, 48 h, read-out: IC50 COLO205
HTB161 = experiment: Inhibition of cancer cell growth as measured by cell number, HTB161; type: cell-based; settings: Homo sapiens, 48 h, read-out: IC50 HTB161
CX1 = experiment: Inhibition of cancer cell growth as measured by cell number, CX1; type: cell-based; settings: Homo sapiens, CX-1, 48 h, read-out: IC50 CX1
LS174T = experiment: Inhibition of cancer cell growth as measured by cell number, LS174T; type: cell-based; settings: Homo sapiens, 48 h, read-out: IC50 LS174T
CCRF-CFM = experiment: Inhibition of cancer cell growth as measured by cell number, CCRF-CFM; type: cell-based; settings: Homo sapiens, 48 h, read-out: IC50 CCRF-CFM
LNCAP = experiment: Inhibition of cancer cell growth as measured by cell number, LNCAP; type: cell-based; settings: Homo sapiens, 48 h, read-out: IC50 LNCAP
B7474 = experiment: Inhibition of cancer cell growth as measured by cell number, B7474; type: cell-based; settings: Homo sapiens, 48 h, read-out: IC50 B7474
A27805 = experiment: Inhibition of cancer cell growth as measured by cell number, A27805; type: cell-based; settings: Homo sapiens, 48 h, read-out: IC50 A27805
NHEK = experiment: Inhibition of cell growth by incorporation of [3H]-thymidine, NHEK; type: cell-based, human; settings: Homo sapiens, read-out: IC50 NHEK
[5] = cell number, Sulforhodamine B, 48 hours exposure, Table 4

SMILES | IC50 (HL60) [µg/mL] | IC50 (A2780DDP) [µg/mL] | IC50 (A431 [1]; Table 6) [µg/mL] | IC50 (HCT15) [µg/mL] | IC50 [2] [nM] | IC50 (PC3) [µg/mL] | IC50 (T47D) [µg/mL] | IC50 (LOX; Table 6) [µg/mL] | IC50 (SW620; Table 4) [µg/mL] | IC50 (NEC) [µg/mL] | IC50 (LX1) [µg/mL] | IC50 (SW948) [µg/mL] | IC50 [4] [nM] | IC50 (DU145) [µg/mL] | IC50 (SKBR3; Table 7) [µg/mL] | IC50 (CCL228) [µg/mL] | IC50 (MCF7; Table 5) [µg/mL] | IC50 (CACO2) [µg/mL] | IC50 (A549) [µg/mL] | IC50 (COLO205) [µg/mL] | further results
COc1cc2ncc(C#N)c(Nc3cccc(Cl)c3)c2cc1OC [Example 41, 4-[(3-Chlorophenyl)amino]-6,7-dimethoxy-3-quinolinecarbonitrile] | 3.23 (≈ 9.52 µM) | 6.25 (≈ 18.4 µM) | 0.813 (≈ 2.39 µM) | 4.21 (≈ 12.4 µM) | 200 | 17.5 (≈ 51.5 µM) | 8.5 (≈ 25 µM) | 0.961 (≈ 2.83 µM) | 14.7 (≈ 43.1 µM) | 8.46 (≈ 24.9 µM) | 48.7 (≈ 143 µM) | 14.1 (≈ 41.6 µM) | 1400 | 0.913 (≈ 2.69 µM) | 20.6 (≈ 60.8 µM) | 18.5 (≈ 54.4 µM) | 24.8 (≈ 73.1 µM) | 2.11 (≈ 6.21 µM) | 25 (≈ 73.5 µM) | 6.13 (≈ 18 µM) | IC50 (MIP; [5]): 4.09 µg/mL (≈ 12 µM); IC50 (A431 [1]; Table 8): 0.24 µg/mL (≈ 0.706 µM); IC50 (A431 [3]): 1500 nM; IC50 (LOX; Table 8): 1.33 µg/mL (≈ 3.91 µM); IC50 (SW620; Table 8): 2.23 µg/mL (≈ 6.56 µM); IC50 (SKBR3; Table 8): 0.48 µg/mL (≈ 1.41 µM); IC50 (MCF7; Table 8): 6.86 µg/mL (≈ 20.2 µM); IC50 (HTB161): 7.87 µg/mL (≈ 23.2 µM); IC50 (CX1): 7.25 µg/mL (≈ 21.3 µM); IC50 (LS174T): 2.92 µg/mL (≈ 8.61 µM); IC50 (CCRF-CFM): 8.29 µg/mL (≈ 24.4 µM); IC50 (LNCAP): 3.53 µg/mL (≈ 10.4 µM); IC50 (B7474): 6.26 µg/mL (≈ 18.4 µM); IC50 (A27805): 7.73 µg/mL (≈ 22.7 µM)
CC#CC(=O)Nc1ccc2ncc(C#N)c(Nc3cccc(Br)c3)c2c1 [Example 15, N-[4-[(3-Bromophenyl)amino]-3-cyano-6-quinolinyl]-2-butynamide] | > 33 | 33 (≈ 81.4 µM) | 22 (≈ 54.3 µM) | > 33 | 0.6 | > 33 | > 33 | > 33 | 33 (≈ 81.4 µM) | > 33 | > 33 | > 33 | > 100000 | 18 (≈ 44.4 µM) | > 33 | > 33 | > 33 | 2.41 (≈ 5.94 µM) | > 33 | 33 (≈ 81.4 µM) | IC50 (MIP; 48 h): 33 µg/mL (≈ 81.4 µM); IC50 (NHEK): 4000 nM; IC50 (HTB161): 33 µg/mL (≈ 81.4 µM); IC50 (CX1): 33 µg/mL (≈ 81.4 µM); IC50 (LS174T): > 33 µg/mL; IC50 (CCRF-CFM): > 33 µg/mL; IC50 (LNCAP): > 33 µg/mL; IC50 (B7474): > 33 µg/mL; IC50 (A27805): 33 µg/mL (≈ 81.4 µM)
COc1cc2ncc(C#N)c(Nc3cccc(C#N)c3)c2cc1OC [Example 45, 4-[(3-Cyanophenyl)amino]-6,7-dimethoxy-3-quinolinecarbonitrile] | > 100 | 39.3 (≈ 119 µM) | 2.61 (≈ 7.9 µM) | 79.7 (≈ 241 µM) | 1670 | 88.9 (≈ 269 µM) | 30 (≈ 90.9 µM) | 9.06 (≈ 27.4 µM) | > 100 | 72.1 (≈ 218 µM) | 100 (≈ 303 µM) | > 100 | > 100000 | 8.94 (≈ 27.1 µM) | 60.5 (≈ 183 µM) | > 100 | 57.8 (≈ 175 µM) | 0.911 (≈ 2.76 µM) | 100 (≈ 303 µM) | > 100 | IC50 (MIP; [5]): > 100 µg/mL; IC50 (A431 [3]): 150 nM; IC50 (HTB161): 4.21 µg/mL (≈ 12.8 µM); IC50 (CX1): 89.7 µg/mL (≈ 271 µM); IC50 (LS174T): 87.1 µg/mL (≈ 264 µM); IC50 (CCRF-CFM): > 100 µg/mL; IC50 (LNCAP): 57.8 µg/mL (≈ 175 µM); IC50 (B7474): 86.8 µg/mL (≈ 263 µM); IC50 (A27805): 8.66 µg/mL (≈ 26.2 µM)

From patent EP0973746B1, “SUBSTITUTED 3-CYANO QUINOLINES” (Wyeth Holdings Corporation, priority 1997, dated 1998)
